Measured values: patent publication US7888319B2, “Compositions and methods for promoting wound healing and tissue regeneration” (MUSC Foundation for Research Development, priority 2004, dated 2011)
Ends that are not written are not given here.

Legend:
[1] = test system: NIH-3T3 cells; test: In vitro scratch injury of NIH-3T3 monolayer (repopulation, PCNA immunolabeling); type: cell-based; details: 30 μM
Experimental: An NIH-3T3 monolayer was pre-treated with ACT 1 peptide (SEQ ID NO:2) for 24 hrs, and “scratch-injured” with a p200 pipette tip. The “scratch injury” was subsequently allowed to “heal” for 24 hours in the presence of (a, b) 30 μM ACT 1 peptide (SEQ ID NO:2), (c, d) 30 μM non-active control peptide (SEQ ID NO: 55), or (e, f) vehicle control solution containing no ACT peptide or control peptide. […] The repopulation of the “scratch injury” occurs in part via migration of the transformed cells crawling into the “scratch injury” area. Figures (b), (d) and (f) show proliferating cell nuclear antigen (PCNA) immunolabeling of cells in the “scratch injury” or at the injury edge.
NIH-3T3 fibroblasts were “scratch injured” and subject to the continuous presence of 30 μM ACT 1 peptide (SEQ ID NO:2) for 24 hours or the control conditions as outlined in FIG. 2. […] The cells have been labeled with fluorescent phalloidin to aid visualization. ACT peptide-treated cells show low levels of repopulation of the scratch injury area (white double headed arrows).
NIH-3T3 cells were grown over 2-3 days until forming a near-confluent monolayer on a tissue culture dish according to standard protocols and the monolayer was then pre-treated with ACT 1 peptide (SEQ ID NO:2) for 24 hrs, and “scratch-injured” with a p200 pipette tip. The “scratch injury” was subsequently allowed to repopulate for 24 hours in the presence of 30 μM ACT 1 peptide (SEQ ID NO:2) dissolved in the culture media (FIG. 2a, b) or in presence of two control conditions (FIG. 2c-f). In the first control condition, the “scratch-injured” cells were allowed to repopulate for 24 hours in the presence of a non-active control peptide (as in FIG. 1) dissolved in the culture media at a concentration of 30 μM (FIG. 2c, d). In the second control condition, phosphate buffered saline (PBS) was added to the culture media and the “scratch-injured” cells were allowed to repopulate in the presence of this vehicle control solution containing no ACT peptide or control peptide (FIG. 2e, f). […] The repopulation of the “scratch injury” occurs in part via migration of the transformed cells crawling into the “scratch injury” area. Figures (FIGS. 2b, d, and f) show proliferating cell nuclear antigen (PCNA) immunolabeling of cells in the “scratch injury” or at the injury edge.
The cells were labeled with fluorescent phalloidin to aid visualization. ACT peptide-treated cells show low levels of repopulation of the scratch injury area (white double headed arrows).

[2] = test system: 8 mm wide circular excisional skin injuries; test: Large (8 mm) excisional skin injury in adult mice; type: in vivo, mouse
Experimental: Anesthetized adult mice had 8 mm wide circular excisional skin injuries made by fine surgical scissors down to the underlying muscle in the dorsal mid line between the shoulder blades (i.e., as shown in (a) an (b). The boundary of the injury was demarcated by an 8 mm wide circular template cut in a plastic sheet. 100 μl of a solution of 30% pluronic gel containing either no (control) or dissolved ACT 1 peptide (SEQ ID NO:2) at a concentration of 100 μM was then applied to the excisional injuries. Control or ACT peptide containing gel was applied subsequently 24 hours after the initial application. No further applications of control and ACT peptide containing gel were made after the second application. […] Note that images of the same injury on the same animal are shown at the different time points during the healing time course. […] Skin biopsies of the entire wound site were taken from some of the mice 24 hours following the excisional injury in the experiment described in FIG. 6. Figures (a) and (b) show low magnification survey views of cross-sections from near the center of the wound of control and ACT peptide treated injuries respectively. The wound edge (marked by the small arrows), bounded by skin of normal histological appearance, can be seen in both cases. A black rectangle is placed over the images in (a) and (b) at the left hand wound edge. The histological structures within these two rectangles are shown at higher magnification in (c) and (d) for control and ACT peptide treated tissues, respectively. Of most interest is a “collar-like” tissue of aligned fibrous material (arrowed) projecting from basal parts of the injury to or toward the wound edge and exterior surface of injury. The aligned fibrous substrate has the appearance of being much more organized in the control injury (d) than in the ACT peptide treated injury (c). […] This is confirmed in (e) and (f) where regions of histological section within the black rectangles shown in (c) and (d) are respectively shown at higher magnification. The inflammatory cells studding the aligned fibrous substrate include mast cells, neutrophils and macrophages. These inflammatory cells occur at much higher density in the control injury than in the ACT peptide treated injury. […] At the end of the 14 day period in the experiment described in FIG. 6, skin biopsies of the entire excisional injury were taken and histological sections from these skin samples were H&E histochemically stained. Figures (a) and (b) show low magnification survey views of cross-sections from near the center of the injury of ACT peptide and control respectively. The wound edge (marked by the small arrows), bounded by skin of normal histological appearance, can be seen in both cases. A black rectangle is placed over the images in (a) and (b) near the center of each injury. The histological structures within these two rectangles are shown at higher magnification in (c) and (d) for the ACT peptide and control tissues respectively. It is evident that tissue within the ACT peptide treated injury locus has considerably more complexity. […] By comparison, re-epithelization of the injury surface is incomplete and there is no sign of regenerating hair follicles in the epithelium of the control injury (d). […] As with, the hair follicles this tissue complexity was regenerated by differentiation of stem cells. […]

Sequence: RPRPDDLEI (not fully specified (N-terminus)) [ACT 1, carboxy-terminal 9 amino acids of human Cx43; amino terminus biotinylated in tests]
- proliferating cell nuclear antigen (PCNA) immunolabeling of cells in the scratch injury or at the injury edge ([1]; 24 hours after scratch): only low luminosity consistent with background and non-proliferation
- % area of cells repopulating the scratch injury after 24 hours ([1]; 24 hours, vs control conditions, p<0.000001): reduction of cells in the injury area in the presence of ACT peptide is dramatic
- closure, inflammation, healing and scarring of injury ([2]; 100 μM in 30% pluronic gel, 100 μl, applied at 0 and 24 hours, 14 day time course, vs gel without peptide): closed faster, was less inflamed in appearance, healed faster and scarred less
- re-epithelization of the injured surface ([2]; 100 μM, 14 days, H&E histology): re-epithelization of the injured surface is complete
- regenerating hair follicles in the new epithelium ([2]; 100 μM, 14 days, H&E histology): regenerating hair follicles can already be seen
- restoration of tissue structural complexity beneath the reformed epithelium ([2]; 100 μM, 14 days, H&E histology): considerable restoration of normal structural complexity
- density of inflammatory cells studding the fibrous substrate at the wound edge ([2]; 100 μM, skin biopsy 24 hours after injury, H&E histology): considerably lower density of inflammatory cells
